# From US10245255B2, “Compositions and methods for the treatment of obesity and related disorders” (THE REGENTS OF THE UNIVERSITY OF MICHIGAN, priority 2011, dated 2019)
# Assays:
# [1] = Diet-induced obese mice: liver weight, triglyceride, glycogen, histology; assay type: in vivo, C57BL/6 mice
# Protocol: (§1) Wild type male C57BL/6 mice were fed a high fat diet consisting of 45% of calories from fat (D12451 Research Diets Inc., New Brunswick, N.J.) starting at 8 weeks of age for 12-24 weeks, while normal diet C57BL/6 controls were maintained on normal chow diet consisting of 4.5% fat (5002 Lab Diet, Philadelphia, Pa.). Diets containing ω-3 fatty acids were fed as previously described 24. Rosiglitazone treatment was administered for three weeks by addition of the compound to the diet in mice that had been on HFD for 16 weeks. Each mouse consumed on average 3.5 mg/kg rosiglitazone per day. Amlexanox was administered by daily oral gavage. […] Animals were housed in a specific pathogen-free facility with a 12-hour light/12-hour dark cycle and given free access to food and water. All animal use was in compliance with the Institute of Laboratory Animal Research Guide for the Care and Use of Laboratory Animals and approved by the University Committee on Use and Care of Animals at the University of Michigan and UCSD.
# Liver lipids were isolated as previously described (Norris et. Al. 2003) and the triglyceride levels were measured by Triglyceride Reagent kit.
# Determination of glycogen in liver was performed as follows. Briefly, liver tissue was digested in a 30% potassium hydroxide solution, and then glycogen was precipitated using ethanol. After three washes to remove any traces of glucose, glycogen was digested by addition of amyloglucosidase. Released glucose was quantified using a colorimetric kit (Wako, Richmond, Va.).
# (§2) Tissues were fixed in formalin for 3 days. Histology was performed by the University of Michigan Cancer Center Research Histology Laboratory.
# [2] = Diet-induced obese mice: tissue protein, phosphorylation and gene expression (liver, WAT, BAT); assay type: in vivo, C57BL/6 mice
# Protocol: as §1
# Tissues were homogenized in lysis buffer (50 mM Tris, pH 7.5, 5 mM EDTA, 250 mM sucrose, 1% NP40, 2 mM DTT, 1 mM sodium vanadate, 100 mM NaF, 10 mM Na4P2O7, and freshly added protease inhibitor tablet), then incubated for one hour at 4° C. Crude lysates were then centrifuged at 14,000×g for 15 minutes twice and the protein concentration was determined using BioRad Protein Assay Reagent. Samples were diluted in sodium dodecyl sulfate (SDS) sample buffer. Bound proteins were resolved by SDS-polyacrylamide gel electrophoresis and transferred to nitrocellulose membranes (Bio-Rad, Hercules, Calif.). Individual proteins were detected with the specific antibodies and visualised on film using horseradish peroxidase-conjugated secondary antibodies (Bio-Rad, Hercules, Calif.) and Western Lightning Enhanced Chemiluminescence (Perkin Elmer Life Sciences, Waltham, Mass.).
# as §2
# (§3) Mouse tissues were isolated, rinsed in Phosphate Buffered Saline (PBS), frozen in liquid nitrogen and stored at −80° C. until extraction. Total RNA was extracted from Liver, WAT and BAT tissues as well as differentiated 3T3-L1 cells using the RNeasy Lipid Tissue Kit (Qiagen, Valencia, Calif.) according to the manufacturer's instructions with the inclusion of a DNase digestion step. Total RNA was extracted from BMDM and SVF cells using the RNeasy Kit (Qiagen, Valencia, Calif.) with a DNase step. The Superscript First-Strand Synthesis System for RTPCR (Invitrogen, Grand Island, N.Y.) was used with random primers for reverse transcription. Realtime PCR amplification of the cDNA was performed on samples in triplicate with Power SYBR Green PCR Master Mix (Applied Biosystems, Carlsbad, Calif.) using the Applied Biosystems 7900HT Fast Realtime PCR System. […] Data was analyzed using the 2-ΔΔCT method, and statistical significance was determined using the unpaired heterocedastic Student's t-test with one averaged sample value per mouse.
# [3] = Ob/ob mice: insulin tolerance test; assay type: in vivo; settings: 100 mg/kg, 8-week period
# Protocol: Particular physiological tests were used during the development of the technology provided herein. For example, in some of the experiments described below, subjects were tested for tolerance of injected glucose and insulin according to the methods described in Chiang et al. (“The protein kinase IKKepsilon regulates energy balance in obese mice”, Cell (2009) 138: 961-975, incorporated herein by reference in its entirety for all purposes). In some of the experiments described below, subjects were tested for tolerance of oral glucose. In particular, mice were fasted for 6 hours before the studies. For ob/ob mice, 1.0-1.5 mg/g of glucose was gavaged into mice, and blood glucose was measured with a glucometer (e.g., OneTouch Ultra glucometer). Measurement of triglycerides, mRNA, and cytokines were performed according to the methods described in Chiang et al. (The protein kinase IKKepsilon regulates energy balance in obese mice. Cell (2009) 138: 961-975).
# For glucose tolerance tests, after a six-hour fast mice were orally gavaged with glucose at a dose of 1.5 g/kg (C57BL/6 mice) or 1.2 g/kg (ob/ob mice). […] Blood glucose was measured at basal, 15, 30, 45, 60, 90, 120 and 180 minutes from tail blood using the One Touch Ultra glucometer (Lifescan, Milpitas, Calif.).
# [4] = Ob/ob mice: adipose tissue histology and mRNA levels; assay type: in vivo
# Protocol: as §2, §3
# [5] = diet induced obese mice, 25 mg/kg for 8 weeks
smiles,measurement,setting,value
"CC(C)c1ccc2oc3nc(N)c(C(=O)O)cc3c(=O)c2c1 [amlexanox, 2-amino-7-isopropyl-5-oxo-5H-chromeno[2,3-b]pyridine-3-carboxylic acid]",reductions in hepatic lipids after mice were taken off drug,"[1]; continued on high fat diet, stained tissue sections",reversed
same,large lipid droplets in liver (H & E staining),[1]; [5],largely disseminated
same,reduction in liver weight,[1]; [5],greater than 20%
same,hepatic glycogen levels,"[1]; diet induced obese mice, 25 mg/kg for 8 weeks, vs control HFD mice",lower
same,reduction of triglyceride content in liver,"[1]; diet induced obese mice, 25 mg/kg for 8 weeks, vs vehicle",more than 50%
same,expression of brown fat-specific marker Cidea in BAT,"[2]; HFD, 25 mg/kg daily",increased
same,UCP1 protein levels in brown fat,"[2]; HFD, treatment group",increased
same,mitochondrial genes in brown fat,[2]; compared to control,no increases
same,signaling through the mTORC1 pathway in BAT,[2]; compared to controls,Reduced signaling
same,TBK1 phosphorylation in adipose tissue,[2]; diet induced obese mice,prevented
same,high fat diet induction of IKKε protein in adipose tissue,[2]; diet induced obese mice,blocked
same,high fat diet-induced increase of S6K phosphorylation in adipose tissue,[2]; diet induced obese mice,largely attenuated
same,UCP-1 protein levels in adipose tissue,[2]; diet induced obese mice vs HFD vehicle,increased
same,brown fat appearance,[2]; high fat diet,reverted to its normal appearance
same,hormone sensitive lipase phosphorylation in adipose tissue,[2]; high fat diet,prevented the reduction
same,BAT lipids when amlexanox treatment was stopped,"[2]; high fat diet, withdrawal",lipids again accumulated
same,genetic measures of hepatosteatosis,[2]; mice with diet induced obesity,similarly reduced
same,IKKε protein levels in BAT,"[2]; mouse, in vivo",reduced
same,TBK1 protein levels in BAT,"[2]; mouse, in vivo",reduced
same,insulin sensitivity (responsiveness to injected insulin),[3],dramatically improved
same,expression of Glut4 in WAT,[4]; 100 mg/kg,Increased expression
same,expression of PPARγ in WAT,[4]; 100 mg/kg,Increased expression
same,"adipose tissue mRNA level, CD11c",[4]; 100 mg/kg for 12 weeks,marked reduction
same,"adipose tissue mRNA level, F4/80",[4]; 100 mg/kg for 12 weeks,marked reduction
same,"adipose tissue mRNA level, IL-10",[4]; 100 mg/kg for 12 weeks,marked reduction
same,"adipose tissue mRNA level, MCP-1",[4]; 100 mg/kg for 12 weeks,marked reduction
same,"adipose tissue mRNA level, MIP1α",[4]; 100 mg/kg for 12 weeks,marked reduction
same,"adipose tissue mRNA level, Rantes",[4]; 100 mg/kg for 12 weeks,marked reduction
same,"adipose tissue mRNA level, TNFα",[4]; 100 mg/kg for 12 weeks,marked reduction
same,infiltration of inflammatory macrophages in adipose tissue (H & E),"[4]; 100 mg/kg for 12 weeks, epididymal fat",markedly reduced
